Among the data in US20100144755A1 (Glaxo Group Limited, priority 2006, published 2010) are inhibition of neutrophilia values, retold here.

The experiment concerns influx of neutrophils to the lung in LPS-challenged rats. In words: Rat LPS neutrophilia model. In kind it is in vivo. Conditions: LPS aerosol, intratracheal dosing, in at least one of the range of conditions tested, significance p<0.05. On the procedure: Rat LPS Neutrophilia Model
The effect of compounds on the influx of neutrophils to the lung in LPS-challenged rats is evaluated as follows. The test compound is suspended in one of the following solutions: 0.5% tween 80/PBS, 0.5% tween 80/saline, 10% EtOH/saline (with pH adjusted to 2.0, or 8.0 with HCl, or unadjusted), Saline @pH 2.0, 6.5 or 8.0, 0.5% Tragacanth, 1% DMSO/20% Encapsin/Saline, or acidified 5% Tragacanth. The suspension process may be aided by the use of a glass homogenizer. For intratracheal administration, the animals are anesthetized with inhaled isoflurane and placed in a supine position, the trachea is intubated with a steel gavage needle (1.5 inch, 22 gauge, small ball) or a Penn-Century Microsprayer Aerosolizer (model IA-1B) and 200 ul of dosing solution is delivered. The animals are visually monitored during the recovery process, which typically occurs within two minutes. It is noted that the test compounds may be alternatively administered via the microsprayer in a dry powder blend with a suitable excipient, such as lactose.
Rats treated with compound or vehicle (15 min-24 hours pretreatment) are exposed to an LPS aerosol (100 ug/ml) for 15 min. Four hours later the rats are euthanized with pentobarbital (100 mg/kg, i.p.) and the airways are lavaged with 5 washes of 5 ml of phosphate buffered saline. The harvested cells are stained (Diffquick) and counted to determine total and differential cell data. […] Inhibition of neutrophil levels relative to no compound controls is calculated based on the differential counts.
The data is obtained as % inhibition using a particular concentration and pretreat time.
Turning to `Cc1ccc(NC(=O)c2ccsc2)cc1-c1nc(NC2CC(C)(C)NC(C)(C)C2)nc2c1ccc(=O)n2-c1c(F)cccc1F` [31(e), N-(3-{8-(2,6-difluorophenyl)-7-oxo-2-[(2,2,6,6-tetramethyl-4-piperidinyl)amino]-7,8-dihydropyrido[2,3-d]pyrimidin-4-yl}-4-methylphenyl)-3-thiophenecarboxamide], the inhibition of neutrophilia result is listed as “statistically significant inhibition”.
For the molecule `CCCNC(=O)c1ccc(C)c(-c2nc(NCCNC)nc3c2ccc(=O)n3-c2c(F)cccc2F)c1` [56(d), 3-(8-(2,6-difluorophenyl)-2-{[2-(methylamino)ethyl]amino}-7-oxo-7,8-dihydropyrido[2,3-d]pyrimidin-4-yl)-4-methyl-N-propylbenzamide], the inhibition of neutrophilia entry was “statistically significant inhibition”.
On to `Cc1ccc(C(=O)Nc2nccs2)cc1-c1nc(NCc2ncc[nH]2)nc2c1ccc(=O)n2-c1c(F)cccc1F` [79(c), 3-{8-(2,6-difluorophenyl)-2-[(1H-imidazol-2-ylmethyl)amino]-7-oxo-7,8-dihydropyrido[2,3-d]pyrimidin-4-yl}-4-methyl-N-1,3-thiazol-2-ylbenzamide], for which the inhibition of neutrophilia entry is recorded as “statistically significant inhibition”.
As to `CNC1CCN(c2nc(-c3cc(C(=O)NC(C)C)ccc3C)c3ccc(=O)n(-c4c(F)cccc4F)c3n2)CC1` [113(b), 3-{8-(2,6-difluorophenyl)-2-[4-(methylamino)-1-piperidinyl]-7-oxo-7,8-dihydropyrido[2,3-d]pyrimidin-4-yl}-4-methyl-N-(1-methylethyl)benzamide], the inhibition of neutrophilia result was “statistically nonsignificant inhibition”.
In the case of `CCN(CC)CCCNc1nc(-c2cc(C(=O)NC(C)C)ccc2C)c2ccc(=O)n(-c3c(F)cccc3F)c2n1` [118(b), 3-[2-{[3-(diethylamino)propyl]amino}-8-(2,6-difluorophenyl)-7-oxo-7,8-dihydropyrido[2,3-d]pyrimidin-4-yl]-4-methyl-N-(1-methylethyl)benzamide] it was “statistically nonsignificant inhibition”; in that of `Cc1ccc(C(=O)NC(C)C)cc1-c1nc(N2CCC(N3CCC(C)CC3)CC2)nc2c1ccc(=O)n2-c1c(F)cccc1F` [163(c), 3-[8-(2,6-difluorophenyl)-2-(4-methyl-1,4′-bipiperidin-1′-yl)-7-oxo-7,8-dihydropyrido[2,3-d]pyrimidin-4-yl]-4-methyl-N-(1-methylethyl)benzamide], “statistically nonsignificant inhibition”; in that of `CNCCNc1nc(-c2cc(C(=O)NCC3CC3)ccc2C)c2ccc(=O)n(-c3c(F)cccc3F)c2n1` [Example 4], “statistically significant inhibition”.
The result for `Cc1ccc(C(=O)NC2CC2)cc1-c1nc(N2CCC(N)CC2)nc2c1ccc(=O)n2-c1c(F)cccc1F` [Example 22, 3-[2-(4-amino-1-piperidinyl)-8-(2,6-difluorophenyl)-7-oxo-7,8-dihydropyrido[2,3-d]pyrimidin-4-yl]-N-cyclopropyl-4-methylbenzamide] reads “statistically significant inhibition”.
Turning to `Cc1ccc(C(=O)NC2CC2)cc1-c1nc(NCc2ncc[nH]2)nc2c1ccc(=O)n2-c1c(F)cccc1F` [Example 23, N-cyclopropyl-3-{8-(2,6-difluorophenyl)-2-[(1H-imidazol-2-ylmethyl)amino]-7-oxo-7,8-dihydropyrido[2,3-d]pyrimidin-4-yl}-4-methylbenzamide], the inhibition of neutrophilia result is given as “statistically nonsignificant inhibition”.
Take `Cc1ccc(C(=O)NCC2CC2)cc1-c1nc(N2CCC(N)CC2)nc2c1ccc(=O)n2-c1c(F)cccc1F` [Example 27, 3-[2-(4-amino-1-piperidinyl)-8-(2,6-difluorophenyl)-7-oxo-7,8-dihydropyrido[2,3-d]pyrimidin-4-yl]-N-(cyclopropylmethyl)-4-methylbenzamide]: the inhibition of neutrophilia result is “statistically significant inhibition”.
